Assay results as given in patent US7053055B2, “Compounds of unstable DP IV-inhibitors” (priority 1998, dated 2006).

Key:
[1] = Intramolecular cyclisation (stability) in 0.1 M HEPES buffer quantified by UV spectrometry; assay type: physicochemical; details: pH=7.6, 25° C.; for k (rate constant of intramolecular cyclisation): UV spectrometry
Experimental: The cyclisation reaction was monitored over a period of 40 minutes. The formation of the double bond system of the pyrazine, which takes place during the intramolecular reaction, enables quantitative analysis of the cyclisation process by means of UV spectrometry (FIG. 4). The rate constants determined there from for the intramolecular cyclisation of unstable DP IV-inhibitors in 0.1 M HEPES buffer, pH=7.6, 25° C., are shown in Table 1.

[2] = Intramolecular cyclisation in aqueous buffer solution monitored by MALDI-TOF mass spectrometry; assay type: physicochemical; details: aqueous buffer solution pH=7.6, MALDI-TOF MS
Source text: The products of that reaction are the respective pyrazine derivatives (FIG. 1).

[3] = target: T1, DP IV (Homo sapiens, UniProt P27487); assay: DP IV-catalysed hydrolysis of H-Gly-Pro-pNA in the presence of inhibitor (progress curves); assay type: biochemical
T1 sequence (P27487 whole entry): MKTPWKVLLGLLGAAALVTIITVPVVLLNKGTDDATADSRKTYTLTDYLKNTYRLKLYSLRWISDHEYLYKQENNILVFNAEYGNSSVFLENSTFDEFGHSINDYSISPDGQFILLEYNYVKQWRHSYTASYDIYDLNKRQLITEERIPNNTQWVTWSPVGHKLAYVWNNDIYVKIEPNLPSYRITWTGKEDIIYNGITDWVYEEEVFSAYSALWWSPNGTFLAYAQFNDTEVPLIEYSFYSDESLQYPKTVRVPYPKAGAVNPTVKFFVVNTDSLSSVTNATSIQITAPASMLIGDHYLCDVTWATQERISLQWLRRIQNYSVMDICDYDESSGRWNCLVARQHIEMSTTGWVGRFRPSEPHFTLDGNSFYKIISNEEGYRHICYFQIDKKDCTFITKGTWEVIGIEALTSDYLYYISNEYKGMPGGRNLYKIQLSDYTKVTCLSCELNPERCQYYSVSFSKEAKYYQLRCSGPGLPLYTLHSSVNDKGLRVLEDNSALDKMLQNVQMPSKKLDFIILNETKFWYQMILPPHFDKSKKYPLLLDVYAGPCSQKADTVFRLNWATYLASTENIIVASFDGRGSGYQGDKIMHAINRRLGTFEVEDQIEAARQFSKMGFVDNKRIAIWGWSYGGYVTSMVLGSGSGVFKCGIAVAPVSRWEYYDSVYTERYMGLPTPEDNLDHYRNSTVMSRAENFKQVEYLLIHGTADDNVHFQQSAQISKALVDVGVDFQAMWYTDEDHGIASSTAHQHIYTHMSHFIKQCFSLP
Experimental: When the DP IV target enzyme is incubated with unstable inhibitors in the presence of a substrate, inhibition of the enzyme is observed initially; the inhibition subsides again as the experimental time progresses as a result of the intramolecular cyclisation of the inhibitor which takes place in parallel, since the concentration of the inhibitor in the reaction solution decreases as a result of the spontaneously occurring chemical reaction. Because of the time-dependent drop in the concentration of the inhibitor, the rate of the enzyme-catalysed hydrolysis of the substrate increases again as time progresses.
(§1) The active DP IV-inhibitor H-Val-Pro-CH2—(N^+C5H5) is released only as a result of the addition of the DP IV enzyme (used here by way of example also to release the DP IV-inhibitor) with removal of the N-terminal dipeptide H-Gly-Pro-OH. Accordingly, in the mass spectrum (FIG. 7) markedly more than 50% of the incubated compound according to the invention can be detected even after an incubation period of 60 minutes.

[4] = target: T1, DP IV; assay: Stability and DP IV-catalysed cleavage of the masked compound, MALDI-TOF mass spectrum of incubation batch; assay type: biochemical
Experimental: as §1

Structure (SMILES) | half-life [1] [min] | k (rate constant of intramolecular cyclisation) [1] [min⁻¹] | Period within which breakdown to the cyclic pyrazine derivative is completed quantitatively [2] [min] | Duration of DP IV-inhibitory activity compared with the unstable DP IV-inhibitors ([3]; 2.6×10^−5 mol/litre compound, FIG. 8) | Inhibition of the target enzyme DP IV ([3]; substrate H-Gly-Pro-pNA, 0.06 μg/ml DP IV, 0.1 M HEPES pH=7.6, 30° C.) | Incubated compound still detectable in mass spectrum ([4]; incubation with 0.06 μg/ml DP IV, 0.1 M HEPES pH=7.6, 30° C., after 60 minutes) | Stability in buffered aqueous solution in the absence of an enzyme ([4]; over a period of 24 hours)
CC(C)C(N)C(=O)N1CCCC1C(=O)C[n+]1ccccc1.[Cl-] (stereo not drawn) [H-Val-Pro-CH2-(N^+C5H5), H-Val-Pro-CH2—(N^+C5H5)/C1] | 13.3 | 0.00087 | ≤ 60 |  |  |  | 
CC(C)C(NC(=O)C1CCCN1C(=O)CN)C(=O)N1CCCC1C(=O)C[n+]1ccccc1.[Cl-] (stereo not drawn) [H-Gly-Pro-Val-Pro-CH2—(N+C5H5), H-Gly-Pro-Val-Pro-CH2—(N^+C5H5)/C1^−] |  |  |  | markedly prolonged activity | effective inhibition of the target enzyme | more than 50% | stable
NC(Cc1ccccc1)C(=O)N1CCCC1C(=O)C[n+]1ccccc1.[Cl-] (stereo not drawn) [H-Phe-Pro-CH2-(N^+C5H5), H-Phe-Pro-CH2—(N^+C5H5)/C1^−] | 9.6 | 0.0012 | ≤ 30 |  |  |  | 
